Measured values reported in patent publication US5883074A, “Potentiators of antibacterial agents” (priority 1995, dated 1999).

Tests used:
MRSA [1] = assay: Potentiation screening assay: methicillin MIC reduction in MRSA; format: cell-based, Staphylococcus aureus; conditions: 0, 5, and 10 μg/ml test compound
Description: After regrowth at 35° C. to an OD600 of 0.2-0.4 (1-2 hrs.), the cells are diluted 1/1000 in MHB. […] The plate is placed in a humidified 35° C. incubator for 5-24 hours, and cell growth or inhibition is read as turbidity (OD600). Two positive and one negative controls for growth are cells grown MHB, cells grown in MHB plus 20 μg/ml methicillin alone (without test compound), and uninoculated MHB respectively.
Compounds which meet the first two criteria for follow-up are evaluated in a standard microdilution assessment of the MIC with methicillin for MRSA. (see Lorian, Antibiotics in Laboratory Medicine, 3rd ed., pp. 72-75 (1991).) In order to be carried further, the MIC of methicillin preferably is reduced in the presence of the potentiator to at most twice the MIC of a susceptible strain for methicillin.
MICs for the compounds were determined in the presence of 0, 5, and 10 μg/ml of each compound. MRSA cells were grown in the presence of 0, 5, and 10 μg/ml test compound and concentrations of methicillin obtained from serial two-fold dilutions starting at 1024 μg/ml to 0.002 μg/ml (This range can be extended or refined as appropriate.) as follows: A fresh inoculum of MRSA cells was grown at 35° C. in Mueller-Hinton Broth (MHB) overnight and then diluted 1/50 in the same medium. After regrowth at 35° C. to an OD600 of 0.2-0.4 (1-2 hrs.), the cells were diluted 1/1000 in MHB. […] The plate was placed in a humidified 35° C. incubator for 24 hours, and cell growth or inhibition was read as turbidity (OD600).

MRSA [2] = assay: Specificity: intrinsic antibacterial activity without antibacterial agent; format: cell-based, Staphylococcus aureus; conditions: test compound alone, without methicillin
Description: In order to ascertain that the test compound is not primarily responsible for inhibition of growth, MRSA cells are grown in the presence of 5 μg/ml test compound as follows: A fresh inoculum of MRSA cells is grown at 35° C. in Mueller-Hinton Broth (MHB) overnight and then diluted 1/50 in the same medium. After regrowth at 35° C. to an OD600 of 0.2-0.4 (1-2 hrs.), the cells are diluted 1/1000 in MHB. In a microtiter plate, 50 μl of this diluted culture is combined with 50 μl MHB containing 10 μg/ml test compound to give starting growth conditions of 5×10^5 cfu/ml in MHB, with 5 μg/ml test compound. The plate is placed in a humidified 35° C. incubator for 5-24 hours, and cell growth or inhibition is read as turbidity (OD600). To be carried forward to the next step of the potentiator screening assay, the test compound should have little or no intrinsic anti-staphylococcal activity (growth should be at least 75% of the growth of the positive control without methicillin, corrected for background), or that activity should be explicable without indicating the probability of human toxicity.

E. faecalis VanA strain = assay: Vancomycin potentiation screens VPS-20 and VPS-D-ala; format: cell-based, Enterococcus faecalis; conditions: 10 ug/ml test compound
Description: In the VPS-20 protocol, vancomycin is used at 20 ug/ml, test compounds are used at 10 ug/ml (this is not critical, a range could be used as well). The growth medium is Brain Heart Infusion broth however, any of a variety of media which will support growth of the specific bacterial strain can be used. The VPS-D-Ala screen uses 8 ug/ml of vancomycin and 50 mM D-alanine. This amino acid is added to feed the bacteria excess alanine, which allows the bacteria to incorporate the alanine in some cases instead of incorporating the (resistance causing) D-lactate in the pentapeptide termini of the cell wall precursor. The presence of this D-alanine supplement thus makes the assay less stringent.
Inoculate E. faecalis VanA strain in BHI broth (pick a few colonies into 3 ml BHI with 2.56 ug/ml vancomycin and grow O/N at 35° C. in a shaker rotating at 225 rpm.
Dilute the O/N culture 1:50 in BHI with 2.56 ug/ml vancomycin (0.5 ml±24.5 ml BHI) in a 125-ml flask, put back in the 35° C. shaker until the cells grow to early log phase (OD600 about 0.2, takes approximately 2 hrs). Make a 1:800 dilution of the log phase culture with BHI broth. 50 ul of these diluted cells will be used as the inoculum in the assay as described below. Add the inoculum after the other reagents.
Meanwhile, test the inoculum concentration and purity: Make 3 serial 10-fold dilutions of the inoculum in 0.2 ml BHI broth. Plate 100 ul on TSA agar plates (trypticase soy agar), incubate at 35° C. O/N, count the colonies to estimate the CFU/ml in the inoculum (it should be 10^4 -10^5 CFU/ml).
Make vancomycin stock at 50 mg/ml in ddH2 O. Filter sterilize with 0.2 um filter, and keep in the freezer. On the day of the assay, dilute vancomycin to 50 ug/ml (for VPS-20) or 54 ug/ml (for VPS-D-ala) in BHI broth.
Prepare D-alanine (Sigma) at 800 mM in ddH2O. Filter sterilize with 0.2 um filter.
The test compounds are from 0.1 mg/ml plates in 10% DMSO, 90% 50 mM HEPES, pH 7.3. Thaw at room temperature.
1. Take 40 ul 50 ug/ml vancomycin in BHI to each well of the assay plate (Final volume will be 100 ul, making vancomycin concentration 20 ug/ml)
2. For each assay plate, prepare a toxicity control plate; instead of pipetting 40 ul of the vancomycin, use 40 ul of BHI broth in each well of the assay plate.
3. Dilute 800 mM D-alanine to 200 mM in BHI broth, take 25 ul of the 200 mM D-alanine to both the assay plate and the toxic control plate.
4. Take 15 ul of 54 ug/ml vancomycin in BHI to each well of the assay plate (Final volume will be 100 ul, making vancomycin concentration 8 ug/ml)
5. For each assay plate, prepare a toxicity control plate; instead of pipetting 15 ul of the vancomycin, use 15 ul of BHI broth in each well of the assay plate.
6. Take 10 ul/well of the test compounds to the assay plates and the toxicity control plates. Do this in perfect register in the microtiter plates (change tips), and work using sterile technique (Final concentration will be 10 ug/ml test compounds, 1% DMSO). This must be done with separate tips, in perfect register.
7. Add 10 ul of 10% DMSO, 90% 50 mM HEPES, pH 7.3 in columns 1 and 12 in each plates.
8. Inoculate all wells in columns 2 to 11 with 50 ul 1/800 diluted log phase culture (prepared as indicated above). Use 50 ul sterile BHI instead of inoculum for the negative growth controls in well A-D in columns 1 and well E-H in columns 12. Add 50 ul of inoculum to Wells E-H in columns 1 and wells A-D in columns 12 for the positive growth controls.
11. […] Remove mylar lids and check the cell density (A600) in 21-24 hours using a microtiter plate reader. The plates will need to be agitated carefully to resuspend the cells before reading.

[3] = test system: Enterococcus faecalis VanA; assay: Checkerboard assay / dose range study with vancomycin; format: cell-based
Source text: (§1) FIG. 9a provides the results of checkerboard assays showing the MIC reduction for vancomycin in the presence of a range of concentrations of brazilin against two Enterococcus faecalis strains, one VanA and the other VanB. […] Similarly, FIG. 9b provides the results of checkerboard assays showing the MIC reduction for vancomycin in the presence of a range of concentrations of 6-ethyl-7-[1-oxo-3-(1-pyrrolidino)]propyl-1,2,3,4-tetrahydro-1,1,4,4-tetramethylnaphthalene (EOPPTTN).
(§2) Two of the three compounds (brazilin and 6-ethyl-7-[oxo-3-(1-pyrrolidino)]propyl-1,2,3,4-tetrahydro-1,1,4,4-tetramethylnaphthalene) have been examined for synergy with vancomycin. […] Two examples of reasons for alterations are for further optimization, and for modification for use with other bacterial strains or species.

[4] = test system: Enterococcus faecalis VanB; assay: as above; format: cell-based
Source text: as §1, §2

Compound	effect on the MIC for methicillin (MRSA [1])	intrinsic antimicrobial activity (MRSA [2])	further results
C[C@@]12CCC[C@H]1[C@@H]1CC[C@@H]3C[C@H](O)CC[C@]3(C)[C@H]1CC2 [5β-androstan-3-α-ol]	reduce the MIC for methicillin	not exhibiting intrinsic antimicrobial activity	
COc1ccc2c(c1)CCCC2=O [6-methoxy-1-tetralone]	little or no effect on the MIC for methicillin		
C[C@@]12CCC[C@H]1[C@@H]1CC[C@@H]3C[C@@H](O)CC[C@]3(C)[C@H]1CC2 [5β-androstan-3β-ol]	reduce the MIC for methicillin	not exhibiting intrinsic antimicrobial activity	
C[C@]12CC[C@@H]3c4ccc(O)cc4CC[C@H]3[C@@H]1CC[C@H]2O [α-estradiol]	little or no effect on the MIC for methicillin		
C[C@]12CC[C@H](O)C[C@@H]1CC[C@@H]1[C@@H]2CC[C@]2(C)C(=O)CC[C@@H]12 [epiandrosterone]	little or no effect on the MIC for methicillin		
COC(=O)C1(C)CCCC2(C)c3cc(OC)ccc3CCC12 (stereo not drawn) [methyl o-methyl-podocarpate]	little or no effect on the MIC for methicillin		
C[C@@]12CCC[C@H]1[C@@H]1CC[C@H]3C[C@@H](O)CC[C@]3(C)[C@H]1CC2 [5-α-androstan-3β-ol]	reduce the MIC for methicillin	not exhibiting intrinsic antimicrobial activity	
4a, 5-epoxy-3-oxo-14H-4,6a,9,9-4mephenanthro (2,3-D)(1,3)dioxole-4-propionic acid	little or no effect on the MIC for methicillin		
CCc1cc2c(cc1C(=O)CCN1CCCC1)C(C)(C)CCC2(C)C [EOPPTTN, 6-ethyl-7-[1-oxo-3-(1-pyrrolidino)]propyl-1,2,3,4-tetrahydro-1,1,4,4-tetramethylnaphthalene]			intrinsic activity against the control cells (E. faecalis VanA strain; no vancomycin): some intrinsic activity against the control cells; vancomycin potentiation screen result (E. faecalis VanA strain; VPS-20 and/or VPS-D-ala): positive, but less than N-benzyl thiosalicylamide; vancomycin MIC reduction in checkerboard assay ([3]; compound 0-20 μg/ml, VanA): the vancomycin MIC declined significantly; synergy with vancomycin ([3]; dose range study, VanA phenotype): synergy; vancomycin MIC reduction in checkerboard assay ([4]; compound 0-20 μg/ml, VanB): the vancomycin MIC declined significantly; synergy with vancomycin ([4]; dose range study, VanB phenotype): synergy
C[C@]12CC[C@@H]3c4ccc(O)cc4CC[C@H]3[C@@H]1CC[C@@H]2O [β-estradiol]	little or no effect on the MIC for methicillin		
CC1(C)CCCC2(C)C1CCC1(C)OC(=O)CC12 (single isomer, unassigned) [(3aR) -(+) -sclareolide]	little or no effect on the MIC for methicillin		
C=C1CC[C@@H]2[C@](C)(CO)[C@H](O)CC[C@@]2(C)[C@@H]1C/C=C1/C(=O)OC[C@H]1O [andrographolide]	little or no effect on the MIC for methicillin		
10a, 12a dimethyl 1-8-hydroxy-tetradecahydrochrysene	reduce the MIC for methicillin	not exhibiting intrinsic antimicrobial activity	
C[C@H]1[C@H](C)CC[C@]2(CO)CC[C@]3(C)C(=CC[C@@H]4[C@@]5(C)CC[C@H](O)C(C)(C)[C@@H]5CC[C@]43C)[C@H]12 [uvaol]	reduce the MIC for methicillin	not exhibiting intrinsic antimicrobial activity	
COc1ccc2c(c1)CCCC2 [6-methoxy-1,2,3,4-tetrahydronaphthalene]	little or no effect on the MIC for methicillin		
C=C1CC[C@H](O)C/C1=C/C=C1\CCC[C@]2(C)[C@@H]([C@H](C)/C=C/[C@H](C)C(C)C)CC[C@@H]12 [ergocalciferol]	little or no effect on the MIC for methicillin		
COc1cc2c(cc1OC)C(=O)CCC2 [6,7-dimethoxy-1-tetralone]	little or no effect on the MIC for methicillin		
COc1ccc2c(c1)CC[C@@H]1[C@@H]2CC[C@]2(C)[C@@H](O)CC[C@@H]12 [β-estradiol-3-methyl ether]	reduce the MIC for methicillin	not exhibiting intrinsic antimicrobial activity	
COc1ccc2c(c1)[C@]13CCCC[C@@H]1[C@H](C2)N(C)CC3 [dextromethorphan]	little or no effect on the MIC for methicillin		
